≈ marks a conversion by molar mass, not a printed value.
Legend:
Assay in all cases: Antimicrobial activity, minimum growth inhibitory concentration (MIC), agar dilution
Type in all cases: cell-based
S. pneumoniae 225 = details: Sensitivity disk agar-N+5% horse blood, inoculum about 10^6 CFU/ml
Description: (§1) For representative compounds among lincomycin derivatives according to the present invention, the minimum growth inhibitory concentration (MIC, μg/ml) against various pneumococci was measured according to the method described in CHEMOTHERAPY, vol. […] Sensitivity disk agar-N+5% horse blood was used as the medium for the measurement. The amount of bacteria inoculated was about 10^6 CFU/ml.

S. pneumoniae DP1 TypeI = details: Sensitivity disk agar-N+5% horse blood, inoculum about 10^6 CFU/ml
Description: as §1

S. pneumoniae IP692 = details: Sensitivity disk agar-N+5% horse blood, inoculum about 10^6 CFU/ml
Description: as §1

S. pneumoniae 1700 = details: Sensitivity disk agar-N+5% horse blood, inoculum about 10^6 CFU/ml
Description: as §1

S. pneumoniae TH-662 = details: inoculum about 10^6 CFU/ml; for minimum growth inhibitory concentration (MIC): Sensitivity disk agar-N+5% horse blood
Description: as §1

S. pneumoniae 1820 = details: Sensitivity disk agar-N+5% horse blood, inoculum about 10^6 CFU/ml
Description: as §1

S. pneumoniae PRC-53 = details: inoculum about 10^6 CFU/ml; for minimum growth inhibitory concentration (MIC): Sensitivity disk agar-N+5% horse blood
Description: as §1

S. pneumoniae 1913 = details: Sensitivity disk agar-N+5% horse blood, inoculum about 10^6 CFU/ml
Description: as §1

S. pneumoniae PRC-206 = details: inoculum about 10^6 CFU/ml; for minimum growth inhibitory concentration (MIC): Sensitivity disk agar-N+5% horse blood
Description: as §1

Row | Compound | minimum growth inhibitory concentration (MIC) (S. pneumoniae 225) [µg/mL] | minimum growth inhibitory concentration (MIC) (S. pneumoniae DP1 TypeI) | minimum growth inhibitory concentration (MIC) (S. pneumoniae IP692) | minimum growth inhibitory concentration (MIC) (S. pneumoniae 1700) [µg/mL] | minimum growth inhibitory concentration (MIC) (S. pneumoniae TH-662) [µg/mL] | minimum growth inhibitory concentration (MIC) (S. pneumoniae 1820) [µg/mL] | minimum growth inhibitory concentration (MIC) (S. pneumoniae PRC-53) | minimum growth inhibitory concentration (MIC) (S. pneumoniae 1913) | minimum growth inhibitory concentration (MIC) (S. pneumoniae PRC-206) [µg/mL] | MIC (S. pneumoniae 225; Streptococcus pneumoniae) [µg/mL] | MIC (S. pneumoniae DP1 TypeI; Streptococcus pneumoniae, DP1TYPEI) [µg/mL] | MIC (S. pneumoniae IP692; Streptococcus pneumoniae) [µg/mL] | MIC (S. pneumoniae 1700; Streptococcus pneumoniae) [µg/mL] | MIC (S. pneumoniae TH-662; Streptococcus pneumoniae, TH662, Sensitivity disk agar-N+5% horse blood) [µg/mL] | MIC (S. pneumoniae 1820; Streptococcus pneumoniae) [µg/mL] | MIC (S. pneumoniae PRC-53; Streptococcus pneumoniae, PRC53, Sensitivity disk agar-N+5% horse blood) [µg/mL] | MIC (S. pneumoniae 1913; Streptococcus pneumoniae) [µg/mL] | MIC (S. pneumoniae PRC-206; Streptococcus pneumoniae, PRC206, Sensitivity disk agar-N+5% horse blood) [µg/mL]
1 | CCC[C@@H]1C[C@@H](C(=O)N[C@@H]([C@H]2O[C@H](SC)[C@H](O)[C@@H](O)[C@H]2O)[C@H](C)Sc2ccc(-c3cncnc3)c(F)c2)N(C)C1 [Compound 3, 7-Deoxy-7-epi-7-(3-fluoro-4-(pyrimidin-5-yl)phenylthio)lincomycin] | 8 | 0.015 µg/mL | 0.03 µg/mL | 2 | 0.25 | 2 | ≦0.008 μg/ml | ≦0.008 μg/ml | 2 | – | – | – | – | – | – | – | – | –
2 | CCCC1CC(C(=O)NC(C(C)Sc2ccc(-c3nc(C(=O)N(C)C)cs3)cc2)C2OC(SC)C(O)C(O)C2O)N(C)C1 (stereo not drawn) [Compound 17, 7-Deoxy-7-(4-(4-(dimethylcarbamoyl)-thiazol-2-yl)phenylthio)-7-epilincomycin] | 32 | 0.03 µg/mL | 0.03 µg/mL | 2 | 2 | 4 | 0.015 µg/mL | 0.03 µg/mL | 4 | – | – | – | – | – | – | – | – | –
3 | CCC[C@@H]1CCN[C@H](C(=O)N[C@@H]([C@H]2O[C@H](SC)[C@H](O)[C@@H](O)[C@H]2O)[C@H](C)Sc2ccc(-c3cncnc3)cc2)C1 [Compound 59, Methyl 7-deoxy-7-epi-6-N-((2S,4R)-4-propyl)pipecoloyl-7-(4-(pyrimidin-5-yl)phenylthio)-1-thio-α-lincosamide] | 1 | ≦0.008 μg/ml | ≦0.008 μg/ml | 0.13 | 0.13 | 0.25 | ≦0.008 μg/ml | 0.015 µg/mL | 0.25 | – | – | – | – | – | – | – | – | –
4 | CCC[C@@H]1CCN(C)[C@H](C(=O)N[C@@H](C2OC(SC)C(O)C(O)C2O)[C@H](C)Sc2ccc(-c3cncnc3)cc2)C1 (stereo partly drawn) [Compound 65] | – | – | – | – | – | – | – | – | – | 4 (≈ 6.77 µM) | 0.015 (≈ 0.0254 µM) | 0.015 (≈ 0.0254 µM) | 2 (≈ 3.39 µM) | 0.5 (≈ 0.846 µM) | 2 (≈ 3.39 µM) | ≤ 0.008 | 0.015 (≈ 0.0254 µM) | 2 (≈ 3.39 µM)
5 | CS[C@H]1O[C@H]([C@H](NC(=O)[C@@H]2C[C@H](CC3CC3)CCN2)[C@H](C)Sc2ccc(C3C=CCN(C)C3)nc2)[C@H](O)[C@H](O)[C@H]1O (stereo partly drawn) [Compound 93, Methyl 6-N-((2S,4R)-4-cyclopropylmethyl)-pipecoloyl-7-deoxy-7-epi-7-(6-(1-methyl-1,2,3,6-tetrahydropyridin-3-yl)pyridin-3-ylthio)-1-thio-α-lincosamide] | 1 | 0.06 µg/mL | 0.13 µg/mL | 0.5 | 0.5 | 1 | 0.06 µg/mL | 0.13 µg/mL | 1 | – | – | – | – | – | – | – | – | –

— patent US7867980B2, “Lincosamide derivatives and antimicrobial agents comprising the same as active ingredient” (Meiji Seika Kaisha, Ltd., priority 2007, dated 2011)
